Common to all, as to assay: growth of human tumour cells (NCI), 48 h
Assay [1] relates to A498 renal.
The test system of assay [2] is ACHN renal.
Assay [3] relates to COLO 205 colon.
Assay [4] concerns HCC-2998 colon.
For assay [5], the system named is KM12 colon.
Assay [6] relates to NCI-H23 lung.
The subject of assay [7] is NCI-H460 lung.
In assay [8] the test system is OVCAR-3 ovarian.
The test system of assay [9] is SF-539 CNS.
The subject of assay [10] is UO-31 renal.

Values joined by “and” are separate entries in the source; they are usually repeats but may differ in a detail not shown here. Equal values may be shown once.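 Cultured in 96-well plates, cells were exposed to test compound for 48 hours across five concentrations. Abbreviation: GI50, concentration required for 50% inhibition of growth. TGI marks complete inhibition of growth.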

In the case of `O=C1NC(=O)[C@@H](c2cn3c4c(cccc24)CCC3)[C@@H]1c1c[nH]c2ccccc12`, the GI50 in assay [1] is 0.283 µM and 0.292 µM; in assay [2] it was 0.661 µM and 0.829 µM; in assay [3] it was 0.273 µM and 0.326 µM; in assay [4], 0.59 µM and 0.49 µM; in assay [5], 0.382 µM and 0.433 µM; in assay [6], 0.545 µM and 0.53 µM. For the same compound, the GI50 is 0.365 µM and 0.372 µM in assay [7]; 0.273 µM and 0.28 µM in assay [8]; 0.319 µM and 0.337 µM in assay [9]; 0.552 µM and 0.519 µM in [10]. The TGI is > 2.68 µM and 3.22 µM in [1]; > 10 µM and 32.9 µM in [2]; 0.973 µM and 1.14 µM in [3]; > 10 µM and 5.82 µM in assay [4]; > 10 µM and 6.15 µM in assay [5]; > 10 µM and 16.8 µM in assay [6]. The TGI in assay [7] was > 10 µM and 8.55 µM; in assay [8], > 2.22 µM and 0.789 µM; in assay [9] it was 2.39 µM and 5.25 µM; in [10], > 10 µM and 27.1 µM.
On to `Cn1cc(-c2nc(-c3c[nH]c4ncccc34)cs2)c2cc(Cl)ccc21`, for which the GI50 in assay [1] is 2.61 µM; in assay [2], 3.6 µM; in assay [3] it was 3.74 µM; in [4], 3.47 µM; in assay [5], 2.26 µM; in assay [6] it was 5.01 µM. Also, the GI50 was 3.2 µM in assay [7], 7.47 µM in assay [8], 12.1 µM in [9] and 2.81 µM in assay [10]. The TGI in assay [1] is 12.9 µM; in assay [2] it was > 100 µM; in assay [3] it was 14.6 µM; in [4] it was 28.3 µM; in [5] it was 7.47 µM; in assay [6], > 100 µM. For the same compound, the TGI in [7] is > 100 µM; in assay [8], 29.7 µM; in [9], > 100 µM; in assay [10], 75.5 µM.
For `O=[N+]([O-])c1ccc2c(c1)OCCOCCOc1ccc([N+](=O)[O-])cc1OCCOCCO2`, the TGI in [1], in assay [2], in assay [3], in [4], in assay [5] and in [6] was > 100 µM throughout. The TGI in assay [7], in [8], in [9] and in assay [10] was > 100 µM throughout.
Regarding `Brc1nc2c3ccccc3ncn2c1Br`, the TGI in [1] is > 100 µM; in assay [2], 50.9 µM; in [3], 29.8 µM; in assay [4], > 100 µM; in assay [5] it was > 100 µM; in [6], 56.1 µM. In addition, the TGI in [7] was > 100 µM; in assay [8], 22.5 µM; in assay [9], > 100 µM; in [10], > 100 µM.
For `CCOC(=O)c1[nH]c2cccc3c2c1CC(Br)C3=O` (configuration not stated), the TGI in [1] is 32.3 µM; in assay [2], 20.2 µM; in assay [3] it was 27.2 µM; in [4], 29.8 µM; in [5], 30.5 µM; in assay [6], 35.9 µM. For the same compound, the TGI was determined as 47.8 µM in [7], 26.2 µM in assay [8], 30.4 µM in assay [9] and 19.2 µM in assay [10].
On to `O=[N+]([O-])c1ccc(OCCNc2cccc3ccccc23)cc1`, for which the TGI in assay [1], in assay [2], in assay [3], in assay [4], in [5] and in assay [6] was > 100 µM in each case. For the same compound, the TGI in [7], in assay [8], in [9] and in assay [10] was > 100 µM in each case.
`Cc1c2ncccc2c(C)c2c1[nH]c1ccc(O)cc12`: the TGI in assay [1] was 26.1 µM; in assay [2] it was 12.4 µM and 18.7 µM; in assay [3], 24.3 µM and 111 µM; in assay [4], 17.9 µM and 12.3 µM; in assay [5], 19.9 µM and 23.1 µM; in assay [7], 12.8 µM and 7.17 µM. The TGI was 20 µM in assay [8]; 20.8 µM in [9]; 16.7 µM and 28.4 µM in assay [10]. Further, the GI50 in assay [2] is 3.06 µM; in [3] it was 23.1 µM; in assay [5] it was 7.19 µM and 7.87 µM; in [6] it was 11.9 µM and 19 µM; in [7], 2.78 µM and 1.6 µM; in assay [8], 4.01 µM. Also, the GI50 in [9] is 4.85 µM; in assay [10] it was 8.04 µM.
On to `O=c1oc2ccccc2c(Cl)c1Cl`, for which the GI50 in [1] is 10.4 µM; in assay [2], 2.49 µM; in [3], 2.19 µM; in assay [4], 9.86 µM; in assay [5], 3.61 µM; in assay [6], 5.56 µM. Further, the GI50 in assay [7] was 3.21 µM; in assay [8] it was 1.94 µM; in [9], 4.07 µM; in assay [10], 1.83 µM. For the same compound, the TGI stood at 22.4 µM in assay [1]; 5.92 µM in assay [2]; 4.84 µM in assay [3]; 21.8 µM in [4]; 13.7 µM in assay [5]; 18.9 µM in assay [6]. For the same compound, the TGI in [7] stood at 12.1 µM; in assay [8] it was 4.38 µM; in assay [9], 15.3 µM; in [10], 4.73 µM.
For the compound `O=C1C(c2ccc(Cl)cc2)=[N+]([O-])c2ccccc21`, the TGI in assay [1] is 86.9 µM; in assay [2] it was 28.5 µM; in assay [3] it was 32.4 µM; in assay [4], > 100 µM; in assay [5], 29.7 µM; in assay [6], 31.2 µM. Besides, the TGI in [7] was 37.6 µM; in [8], 26.8 µM; in assay [9] it was 36 µM; in [10], > 100 µM.
For `Clc1ccc(Nc2ccnc(NCCNc3ccnc4cc(Cl)ccc34)n2)cc1`, the GI50 in [1] was 1.13 µM; in assay [2] it was 1.63 µM; in assay [3], 1.31 µM; in assay [4], 1.22 µM; in [5] it was 1.62 µM; in assay [6], 1.44 µM. In addition, the GI50 was 1.34 µM in [7], 1.36 µM in assay [8], 1.3 µM in [9] and 1.21 µM in [10]. Besides, the TGI was 2.39 µM in assay [1]; 3.09 µM in assay [2]; 2.92 µM in [3]; 2.59 µM in [4]; 3.06 µM in assay [5]; 2.91 µM in assay [6]. Also, the TGI in assay [7] came to 2.86 µM; in [8] it was 2.69 µM; in assay [9] it was 2.8 µM; in assay [10], 2.6 µM.

Values taken from PubChem BioAssay (NCI).
